Holding throughout (type): biochemical
For test [1], the target named is T1, PDK1 enzyme (Homo sapiens, UniProt O15530).
T1 sequence (O15530 1-556): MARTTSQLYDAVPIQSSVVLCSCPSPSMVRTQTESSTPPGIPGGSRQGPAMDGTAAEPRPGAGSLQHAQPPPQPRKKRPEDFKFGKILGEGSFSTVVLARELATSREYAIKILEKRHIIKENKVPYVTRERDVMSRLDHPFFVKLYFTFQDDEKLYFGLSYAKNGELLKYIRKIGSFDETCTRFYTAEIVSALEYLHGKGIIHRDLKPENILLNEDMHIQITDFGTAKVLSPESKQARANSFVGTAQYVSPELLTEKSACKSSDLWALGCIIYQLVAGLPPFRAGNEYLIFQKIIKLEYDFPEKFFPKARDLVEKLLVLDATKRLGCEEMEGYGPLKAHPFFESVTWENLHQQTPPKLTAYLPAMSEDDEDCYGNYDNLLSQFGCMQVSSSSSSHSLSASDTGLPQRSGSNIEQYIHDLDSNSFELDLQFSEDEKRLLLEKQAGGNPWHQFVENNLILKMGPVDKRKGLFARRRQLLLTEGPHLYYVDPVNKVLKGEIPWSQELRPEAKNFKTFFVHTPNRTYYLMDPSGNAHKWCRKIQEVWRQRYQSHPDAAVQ
Put plainly: PDK1 3'-phosphoinositide-dependent kinase assay, phosphorylation of synthetic peptide (33P-ATP filtration). As to conditions: 0.01 mM ATP, read-out: PDK1 IC50. Put shortly: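 Radiometric peptide phosphorylation by PDK1 with inhibitor, 60 min at 30 °C, using 0.01 mM ATP plus 33P-γ-ATP, 0.075 mM peptide, 7.5 mM Mg acetate in Tris-HCl pH 7.5. Phosphoric acid stopped reaction; phosphorylated peptide captured on filter plates and counted by scintillation.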

Test [2] concerns the target CDK2 enzyme, complexed with cyclin A (Homo sapiens, UniProt P24941). Kind of test: CDK2 cyclin dependent kinase assay, phosphorylation of synthetic peptide […] (33P-ATP filtration). The following applies: 0.1 mM ATP.
Test [3] has as its target T2, Chk1 (Homo sapiens, UniProt O14757).
T2 sequence (O14757 1-476): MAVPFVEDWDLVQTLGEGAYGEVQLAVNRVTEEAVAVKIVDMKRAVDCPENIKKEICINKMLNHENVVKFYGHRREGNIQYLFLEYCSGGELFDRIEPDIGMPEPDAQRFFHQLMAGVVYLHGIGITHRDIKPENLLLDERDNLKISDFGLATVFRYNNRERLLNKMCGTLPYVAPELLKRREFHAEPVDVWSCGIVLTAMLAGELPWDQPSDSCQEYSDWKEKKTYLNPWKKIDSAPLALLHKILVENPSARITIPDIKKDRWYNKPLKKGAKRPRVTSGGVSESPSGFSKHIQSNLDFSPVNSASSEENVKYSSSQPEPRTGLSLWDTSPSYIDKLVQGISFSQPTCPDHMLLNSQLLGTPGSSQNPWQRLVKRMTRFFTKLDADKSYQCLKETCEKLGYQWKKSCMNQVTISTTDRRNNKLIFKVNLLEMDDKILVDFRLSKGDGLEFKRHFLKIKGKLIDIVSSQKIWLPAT
Kind of test: Chk1 kinase assay, phosphorylation of Chktide (33P-ATP filtration). The following applies: 0.01 mM ATP, read-out: Chk1 IC50. Put shortly:
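GST-Chk1 (11 nM) with inhibitor, 30 μM Chktide peptide, 0.01 mM ATP plus 33P-γ-ATP in 50 mM Hepes pH 7.5 with 0.1 mg/ml BSA, 40 min at 30° C. Stopped with phosphoric acid; phosphorylated peptide captured on filter plates and scintillation-counted.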

Read-outs that look alike come from different tables or passages of the source.

The values below come from patent US20070275961A1, “Triazolo ' 1, 5-A ! Pyrimidines and Their Use in Medicine” (VERNALIS (CAMBRIDGE) LIMITED., priority 2003, published 2007).

Regarding `CN(C)c1ccc(Nc2cc(Nc3ccc(S(C)(=O)=O)cc3)n3ncnc3n2)cc1` [Example 91], the figures for the IC50 in test [1] (Table 2), in test [2] (Table 2) and in test [3] (Table 2) were > 200 µM, 4.83 µM and 14.2 µM, respectively.

For the compound `CS(=O)(=O)c1ccc(Nc2cc(Cl)nc3ncnn23)cc1` [Example 18], the 50% inhibitory concentration (IC50) in test [1] (Table 1) is > 200 µM; in test [2] (Table 1), 0.82 µM; in test [3] (Table 1), > 200 µM.

As for `CS(=O)(=O)c1ccc(Nc2cc(NCC34CC5CC(CC(C5)C3)C4)nc3ncnn23)cc1` [Example 99], the half-inhibitory concentration (IC50) in test [1] (Table 2) is > 200 µM; in test [2] (Table 2), 25.7 µM; in test [3] (Table 2), > 200 µM.

For the compound `NC(=O)c1ccc(Nc2cc(-c3cccc(OCC4CCCNC4)c3)n3ncnc3n2)cc1` (stereo not drawn) [Example 148], the results for the 50% inhibitory concentration (IC50) in test [1] (Table 4), in test [2] (Table 4) and in test [3] (Table 4) were 10.4 µM, 5.38 µM and 17 µM, respectively.

As for `Cc1cccc(-c2cc(Nc3ccc(C(N)=O)cc3)nc3ncnn23)c1` [Example 104], the IC50 in test [1] (Table 3) is 4.08 µM; in test [2] (Table 3), > 200 µM; in test [3] (Table 3) it was 14.9 µM.

Regarding `NS(=O)(=O)c1ccc(Nc2cc(N3CCCC(O)C3)nc3ncnn23)cc1` (stereo not drawn) [Example 67], the figures for the IC50 in test [1] (Table 2), in test [2] (Table 2) and in test [3] (Table 2) were > 200 µM, 2.3 µM and > 200 µM, respectively.

`Cc1cc(Nc2ccc(C(N)=O)cc2)nc2ncnn12` [Example 114]: the IC50 in test [1] (Table 3) is > 200 µM; in test [2] (Table 3), > 200 µM; in test [3] (Table 3), 6.42 µM.

As for `NS(=O)(=O)c1ccc(Nc2cc(-c3cccc(C(=O)O)c3)nc3ncnn23)cc1` [Example 27], the half-maximal inhibitory concentration (IC50) in test [1] (Table 1) is > 200 µM; in test [2] (Table 1), 14.3 µM; in test [3] (Table 1), > 200 µM.

`CCN(CC)CCOc1cccc(-c2cc(Nc3ccc(C(N)=O)cc3)nc3ncnn23)c1` [Example 146]: the concentration for half-maximal inhibition (IC50) worked out at 7.6 µM in test [1] (Table 4), 5.51 µM in test [2] (Table 4) and 20.8 µM in test [3] (Table 4).

With `CS(=O)(=O)c1ccc(Nc2cc(N)nc3ncnn23)cc1` [Example 97], the IC50 is > 200 µM in test [1] (Table 2), 20.3 µM in test [2] (Table 2) and > 200 µM in test [3] (Table 2).

As to `CCN(CC)c1cc(Nc2ccc(S(C)(=O)=O)cc2)n2ncnc2n1` [Example 65], the 50% inhibitory concentration (IC50) was > 200 µM in test [1] (Table 2), 0.94 µM in test [2] (Table 2) and > 200 µM in test [3] (Table 2).

As for `CNc1cc(Nc2ccc(S(N)(=O)=O)cc2)n2ncnc2n1` [Example 66], the IC50 was > 200 µM in test [1] (Table 2), 4.19 µM in test [2] (Table 2) and > 200 µM in test [3] (Table 2).

With `CCN(CC)c1cc(Nc2ccc(S(=O)(=O)N(C)C)cc2)n2ncnc2n1` [Example 71], the IC50 is > 200 µM in test [1] (Table 2), 0.59 µM in test [2] (Table 2) and > 200 µM in test [3] (Table 2).

Consider `Clc1cc(NCc2ccncc2)n2ncnc2n1` [Example 56], for which the results for the IC50 in test [1] (Table 1), in test [2] (Table 1) and in test [3] (Table 1) were > 200 µM, 43.3 µM and > 200 µM, respectively.

For the compound `CS(=O)(=O)c1ccc(Nc2cc(-c3cccc(F)c3)n3ncnc3n2)cc1` [Example 119], the IC50 in test [1] (Table 3) is 115 µM; in test [2] (Table 3), > 200 µM; in test [3] (Table 3), 2.58 µM.

As to `Clc1cc(NCC2CCNCC2)n2ncnc2n1` [Example 81], the figures for the IC50 in test [1] (Table 2), in test [2] (Table 2) and in test [3] (Table 2) were > 200 µM, 177 µM and > 200 µM, respectively.

As for `NC(=O)c1ccc(Nc2cc(-c3cccc(OCc4cccnc4)c3)n3ncnc3n2)cc1` [Example 145], the IC50 amounted to 1.73 µM in test [1] (Table 4), 23.1 µM in test [2] (Table 4) and 9.86 µM in test [3] (Table 4).

`NS(=O)(=O)c1ccc(Nc2cc(-c3cccc(F)c3)n3ncnc3n2)cc1` [Example 118]: the half-maximal inhibitory concentration (IC50) in test [1] (Table 3) turned out to be 6.28 µM; in test [2] (Table 3), 116 µM; in test [3] (Table 3), 1.54 µM.

With `NC(=O)c1ccc(Nc2cc(-c3ccc4c(c3)OCO4)n3ncnc3n2)cc1` [Example 137], the IC50 in test [1] (Table 3) is 29.1 µM; in test [2] (Table 3) it was > 200 µM; in test [3] (Table 3) it was 14.2 µM.

Take `CCN(CC)c1cc(Nc2ccc(S(=O)(=O)C(F)(F)F)cc2)n2ncnc2n1` [Example 70]: the IC50 was > 200 µM in test [1] (Table 2), 2.69 µM in test [2] (Table 2) and > 200 µM in test [3] (Table 2).

On to `COc1ccc(OC)c(Cc2cc(Nc3ccc(C(N)=O)cc3)nc3ncnn23)c1` [Example 127], for which the figures for the half-inhibitory concentration (IC50) in test [1] (Table 3), in test [2] (Table 3) and in test [3] (Table 3) were > 200 µM, > 200 µM and 106 µM, respectively.

As for `NC(=O)c1ccc(Nc2cc(-c3ccccc3)n3ncnc3n2)cc1` [Example 116], the IC50 in test [1] (Table 3) is 5.11 µM; in test [2] (Table 3) it was 97.5 µM; in test [3] (Table 3), 9.82 µM.

With `NC(=O)c1sccc1Nc1cc(Cl)nc2ncnn12` [Example 47], the concentration for half-maximal inhibition (IC50) in test [1] (Table 1), in test [2] (Table 1) and in test [3] (Table 1) was > 200 µM throughout.

As for `CC(C)C(CO)Nc1cc(Nc2ccc(S(N)(=O)=O)cc2)n2ncnc2n1` (stereo not drawn) [Example 31], the values for the 50% inhibitory concentration (IC50) in test [1] (Table 1), in test [2] (Table 1) and in test [3] (Table 1) were > 200 µM, 4.91 µM and > 200 µM, respectively.

In the case of `CN(C)S(=O)(=O)c1ccc(Nc2cc(Cl)nc3ncnn23)cc1` [Example 8], the IC50 in test [1] (Table 1) is > 200 µM; in test [2] (Table 1), 48.2 µM; in test [3] (Table 1), > 200 µM.

Turning to `CCN(CC)c1cc(Nc2ccc(S(=O)(=O)c3ccccc3)cc2)n2ncnc2n1` [Example 93], the figures for the concentration for half-maximal inhibition (IC50) in test [1] (Table 2), in test [2] (Table 2) and in test [3] (Table 2) were > 200 µM, 0.67 µM and > 200 µM, respectively.

Take `NS(=O)(=O)c1ccc(CNc2cc(OCC3CCCCC3)nc3ncnn23)cc1` [Example 57]: the IC50 in test [1] (Table 2) was > 200 µM; in test [2] (Table 2) it was 18.7 µM; in test [3] (Table 2), > 200 µM.

As for `NS(=O)(=O)c1ccc(Nc2ccnc3ncnn23)cc1` [Example 30], the IC50 in test [1] (Table 1) was > 200 µM; in test [2] (Table 1), 33 µM; in test [3] (Table 1), 72 µM.

In the case of `O=S(=O)(c1ccc(Nc2cc(-c3cccc(F)c3)n3ncnc3n2)cc1)N1CCOCC1` [Example 130], the IC50 in test [1] (Table 3) is 34.2 µM; in test [2] (Table 3), > 200 µM; in test [3] (Table 3) it was 26.9 µM.

As to `O=C(O)c1ccc(Nc2cc(-c3cccc(F)c3)n3ncnc3n2)cc1` [Example 132], the concentration for half-maximal inhibition (IC50) is 36.2 µM in test [1] (Table 3), > 200 µM in test [2] (Table 3) and > 200 µM in test [3] (Table 3).

`CCN(CC)CCNC(=O)c1ccc(Nc2cc(-c3ccccc3)n3ncnc3n2)cc1` [Example 121]: the IC50 in test [1] (Table 3) is 15.4 µM; in test [2] (Table 3), > 200 µM; in test [3] (Table 3), 2.25 µM.

For `NS(=O)(=O)c1ccc(Nc2cc(N3CCOCC3)nc3ncnn23)cc1` [Example 24], the concentration for half-maximal inhibition (IC50) is > 200 µM in test [1] (Table 1), 15.7 µM in test [2] (Table 1) and > 200 µM in test [3] (Table 1).

Take `COc1ccc(Nc2cc(-c3cccc(Cl)c3)nc3ncnn23)cn1` [Example 40]: the results for the half-inhibitory concentration (IC50) in test [1] (Table 1), in test [2] (Table 1) and in test [3] (Table 1) were > 200 µM, 8.29 µM and > 200 µM, respectively.

On to `NS(=O)(=O)c1ccc(CNc2cc(OC3CCCCC3)nc3ncnn23)cc1` [Example 15], for which the values for the half-inhibitory concentration (IC50) in test [1] (Table 1), in test [2] (Table 1) and in test [3] (Table 1) were > 200 µM, 11.3 µM and > 200 µM, respectively.

For the compound `NC(=O)c1ccc(Nc2cc(Cl)nc3ncnn23)cc1` [Example 49], the IC50 in test [1] (Table 1) is > 200 µM; in test [2] (Table 1), 24.1 µM; in test [3] (Table 1) it was > 200 µM.

Regarding `Cc1cccc(-c2cc(Nc3ccc(N(C)C)cc3)nc3ncnn23)c1` [Example 108], the IC50 in test [1] (Table 3) is 66.8 µM; in test [2] (Table 3) it was > 200 µM; in test [3] (Table 3), 36.8 µM.

With `CN(C)Cc1ccccc1-c1cc(Nc2cc(Cl)ccc2O)n2ncnc2n1` [Example 26], the half-inhibitory concentration (IC50) was > 200 µM in test [1] (Table 1), > 200 µM in test [2] (Table 1) and 105 µM in test [3] (Table 1).

On to `COc1ccc(C)cc1-c1cc(Nc2ccc(C(N)=O)cc2)nc2ncnn12` [Example 135], for which the IC50 in test [1] (Table 3) was 10.7 µM; in test [2] (Table 3), > 200 µM; in test [3] (Table 3), 107 µM.
